For assay [1], the system named is Mus musculus. The assay is described as follows: Inhibition of anti-CD3 antibody-induced IL4 production in Balb/c mouse dosed intravenously 5 mins before anti-CD3 antibody injection and measured 2 hrs post-challenge by ELISA. In kind it is functional, organism-based.
In assay [2] the target is T1, Dual specificity mitogen-activated protein kinase kinase 7 (Homo sapiens, UniProt O14733).
T1 sequence (O14733 whole entry): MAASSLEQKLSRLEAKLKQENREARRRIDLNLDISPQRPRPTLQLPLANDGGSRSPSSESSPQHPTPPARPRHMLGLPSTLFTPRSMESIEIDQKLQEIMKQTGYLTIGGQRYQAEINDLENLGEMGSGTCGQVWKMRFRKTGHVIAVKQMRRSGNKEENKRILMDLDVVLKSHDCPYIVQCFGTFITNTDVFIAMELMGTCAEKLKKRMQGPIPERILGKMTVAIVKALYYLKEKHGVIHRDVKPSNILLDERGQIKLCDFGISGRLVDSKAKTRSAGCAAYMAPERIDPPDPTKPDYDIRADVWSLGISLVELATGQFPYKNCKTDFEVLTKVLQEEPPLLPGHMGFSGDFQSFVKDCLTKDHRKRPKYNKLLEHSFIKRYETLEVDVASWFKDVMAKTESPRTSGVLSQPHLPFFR
Kind of assay: Inhibition of GST-tagged human MKK7 expressed in Escherichia coli (BL21(DE3) pLysS) co-expressing human MEKK catalytic domain using biotinylated and GST-tagged rat GST-KN-SAPKalpha substrate incubated for 1 hr by time-resolved fluorescence based assay.

In assay [3] the test system is Mus musculus. Kind of assay: Inhibition of anti-CD3 antibody-induced IFNgamma production in Balb/c mouse dosed intravenously 5 mins before anti-CD3 antibody injection and measured 2 hrs post-challenge by ELISA. In kind it is functional, organism-based. A general note: An ELISA detects its analyte on a solid surface through an enzyme-linked reagent.
In assay [4] the test system is Mus musculus. Kind of assay: Inhibition of anti-CD3 antibody-induced IL2 production in Balb/c mouse dosed intravenously 5 mins before anti-CD3 antibody injection and measured 2 hrs post-challenge by ELISA. In kind it is functional, organism-based.

The source made the active and inactive calls. No rule for the calls is given here.

The values below come from ChEMBL document CHEMBL3714742, “Pyrimido (4,5-b) indole derivatives” (2003).

As for `NC(=O)c1ccc2[nH]c3ncnc(NC4CCCCC4)c3c2c1`, the inhibition entry in assay [1], in assay [3] and in assay [4] was “Active” throughout. The IC50 (commonly the concentration needed to halve the response being measured) in assay [2] is < 1000 nM.

Consider `COC1CCN(c2nc(N)nc3[nH]c4ccc(O)cc4c23)CC1`, for which the inhibition entry in assay [1], in assay [3] and in assay [4] was “Active” in each case. Further, the IC50 in assay [2] is < 1000 nM.

In the case of `Oc1ccc2[nH]c3ncnc(N4CCC(O)(Cc5ccccc5)CC4)c3c2c1`, the inhibition result in assay [1], in assay [3] and in assay [4] was “Active” each time. For the same compound, in assay [2], the IC50 is < 1000 nM.

As to `Nc1nc(NC2CCCCCC2)c2c(n1)[nH]c1ccc(O)cc12`, the inhibition result in assay [1], in assay [3] and in assay [4] was “Active” in each case. The IC50 in assay [2] is < 1000 nM.

As to `NCCNc1ncnc2[nH]c3ccc(C(N)=O)cc3c12`, the inhibition entry in assay [1], in assay [3] and in assay [4] was “Active” throughout. The 50% inhibitory concentration (IC50) in assay [2] was < 1000 nM.

With `N[C@H]1CCN(c2ncnc3[nH]c4ccc(O)cc4c23)C1`, the inhibition result in assay [1], in assay [3] and in assay [4] was “Active” throughout. Further, the concentration for half-maximal inhibition (IC50) in assay [2] is < 1000 nM.

For `CCC1CCCCN1c1ncnc2[nH]c3ccc(O)cc3c12` (stereo unspecified), the inhibition entry in assay [1], in assay [3] and in assay [4] was “Active” throughout. Besides, the IC50 in assay [2] was < 1000 nM.

As for `NC(=O)c1ccc2[nH]c3ncnc(N4CCCCC4CO)c3c2c1` (stereo unspecified), the inhibition result in assay [1], in assay [3] and in assay [4] was “Active” each time. In addition, the concentration for half-maximal inhibition (IC50) in assay [2] is < 1000 nM.

Consider `CN(Cc1ccccc1)c1nc(N)nc2[nH]c3ccc(O)cc3c12`, for which the inhibition entry in assay [1], in assay [3] and in assay [4] was “Active” throughout. In assay [2], the IC50 was < 1000 nM.

Regarding `OCCCNc1ncnc2[nH]c3ccc(O)cc3c12`, the inhibition result in assay [1], in assay [3] and in assay [4] was “Active” in each case. The IC50 in assay [2] was < 1000 nM.

In the case of `Cc1nc(N2CCCCC2C)c2c(n1)[nH]c1ccc(O)cc12` (stereo unspecified), the inhibition entry in assay [1], in assay [3] and in assay [4] was “Active” each time. Also, in assay [2], the IC50 is < 1000 nM.

Take `Nc1nc(N2CCCC2)c2c(n1)[nH]c1ccc(O)cc12`: the inhibition entry in assay [1], in assay [3] and in assay [4] was “Active” each time. The IC50 in assay [2] is < 1000 nM.

Regarding `NC(=O)c1ccc2[nH]c3ncnc(N4CCC(N)C4)c3c2c1` (stereo unspecified), the inhibition result in assay [1], in assay [3] and in assay [4] was “Active” each time. Further, the IC50 in assay [2] is < 1000 nM.

Take `CC(C)(C)OC(=O)NCCCNc1ncnc2[nH]c3ccc(C(N)=O)cc3c12`: the inhibition result in assay [1], in assay [3] and in assay [4] was “Active” each time. Moreover, the IC50 in assay [2] is < 1000 nM.

As for `CC(C)(C)OC(=O)NC1CCCN(c2ncnc3[nH]c4ccc(C(N)=O)cc4c23)C1` (stereo unspecified), the inhibition entry in assay [1], in assay [3] and in assay [4] was “Active” throughout. The IC50 in assay [2] is < 1000 nM.

For `Nc1nc(NC2CCCC2)c2c(n1)[nH]c1ccc(O)cc12`, the inhibition result in assay [1], in assay [3] and in assay [4] was “Active” throughout. The IC50 in assay [2] is < 1000 nM.

Regarding `O=C(O)C1CCN(c2ncnc3[nH]c4ccc(O)cc4c23)CC1`, the inhibition entry in assay [1], in assay [3] and in assay [4] was “Active” in each case. For the same compound, the IC50 in assay [2] was < 1000 nM.

As to `COc1cc2[nH]c3nc(N)nc(N4CCCCC4)c3c2cc1OC`, the inhibition result in assay [1], in assay [3] and in assay [4] was “Active” throughout. This compound registered an IC50 in assay [2] of 1000 nM.

Regarding `NC1CCN(c2ncnc3[nH]c4ccc(O)cc4c23)CC1`, the inhibition entry in assay [1], in assay [3] and in assay [4] was “Active” in each case. The IC50 in assay [2] is < 1000 nM.

In the case of `OCCNc1ncnc2[nH]c3ccc(O)cc3c12`, the inhibition result in assay [1], in assay [3] and in assay [4] was “Active” each time. Besides, the IC50 in assay [2] was < 1000 nM.

As to `OCC1(Nc2ncnc3[nH]c4ccc(O)cc4c23)CCCC1`, the inhibition entry in assay [1], in assay [3] and in assay [4] was “Active” each time. In assay [2], the IC50 was < 1000 nM.

As for `NC(=O)c1ccc2[nH]c3ncnc(N(CCO)Cc4ccccc4)c3c2c1`, the inhibition entry in assay [1], in assay [3] and in assay [4] was “Active” in each case. Also, the IC50 in assay [2] was < 1000 nM.

Turning to `NC(=O)C1CCN(c2ncnc3[nH]c4ccc(O)cc4c23)CC1`, the inhibition result in assay [1], in assay [3] and in assay [4] was “Active” in each case. Further, the IC50 in assay [2] is < 1000 nM.

For the compound `Oc1ccc2[nH]c3ncnc(NC4CCOCC4)c3c2c1`, the inhibition result in assay [1], in assay [3] and in assay [4] was “Active” each time. Also, in assay [2], the IC50 is < 1000 nM.

As to `NC(=O)c1ccc2[nH]c3ncnc(N4CCC(CCO)CC4)c3c2c1`, the inhibition result in assay [1], in assay [3] and in assay [4] was “Active” throughout. Besides, the IC50 in assay [2] was < 1000 nM.

Regarding `OCCC1CCCN(c2ncnc3[nH]c4ccc(O)cc4c23)C1` (stereo unspecified), the inhibition entry in assay [1], in assay [3] and in assay [4] was “Active” each time. Moreover, in assay [2], the IC50 is < 1000 nM.

As for `COC(=O)c1ccc2[nH]c3nc(N)nc(N4CCCCC4)c3c2c1`, the inhibition entry in assay [1], in assay [3] and in assay [4] was “Active” in each case. In assay [2], the IC50 is < 1000 nM.

On to `CC(C)N(C)c1ncnc2[nH]c3ccc(O)cc3c12`, for which the inhibition entry in assay [1], in assay [3] and in assay [4] was “Active” throughout. Moreover, the half-inhibitory concentration (IC50) in assay [2] is < 1000 nM.

With `CC(CO)Nc1ncnc2[nH]c3ccc(O)cc3c12` (stereo unspecified), the inhibition entry in assay [1], in assay [3] and in assay [4] was “Active” each time. In addition, in assay [2], the IC50 was < 1000 nM.

Take `CC1CCCCN1c1nc(N)nc2[nH]c3ccc(O)cc3c12` (stereo unspecified): the inhibition result in assay [1], in assay [3] and in assay [4] was “Active” in each case. In assay [2], the IC50 was < 1000 nM.

`CCCN(CCC)c1ncnc2[nH]c3ccc(C(N)=O)cc3c12`: the inhibition entry in assay [1], in assay [3] and in assay [4] was “Active” throughout. Besides, in assay [2], the IC50 is < 1000 nM.

For the compound `Cc1nc(N2CCCCC2)c2c(n1)[nH]c1ccc(O)cc12`, the inhibition result in assay [1], in assay [3] and in assay [4] was “Active” throughout. In addition, in assay [2], the half-inhibitory concentration (IC50) is < 1000 nM.

Take `CN(CCO)c1nc(N)nc2[nH]c3ccc(O)cc3c12`: the inhibition entry in assay [1], in assay [3] and in assay [4] was “Active” in each case. For the same compound, the IC50 in assay [2] is < 1000 nM.

For `Nc1nc(N2CCOCC2)c2c(n1)[nH]c1ccc(O)cc12`, the inhibition entry in assay [1], in assay [3] and in assay [4] was “Active” in each case. In assay [2], the IC50 is < 1000 nM.

Consider `Nc1nc(N2CCNCC2)c2c(n1)[nH]c1ccc(O)cc12`, for which the inhibition result in assay [1], in assay [3] and in assay [4] was “Active” each time. This compound also gave an IC50 in assay [2] of 1000 nM.

For the compound `OC[C@H](Cc1ccccc1)Nc1ncnc2[nH]c3ccc(O)cc3c12`, the inhibition result in assay [1], in assay [3] and in assay [4] was “Active” in each case. Besides, the concentration for half-maximal inhibition (IC50) in assay [2] is < 1000 nM.

Regarding `CC(C)(C)OC(=O)N1CCC(Nc2ncnc3[nH]c4ccc(O)cc4c23)CC1`, the inhibition result in assay [1], in assay [3] and in assay [4] was “Active” in each case. The IC50 in assay [2] was < 1000 nM.

Consider `Cc1nc(N2CCCC(O)C2)c2c(n1)[nH]c1ccc(O)cc12` (stereo unspecified), for which the inhibition result in assay [1], in assay [3] and in assay [4] was “Active” each time. For the same compound, in assay [2], the IC50 was < 1000 nM.

With `Nc1nc(N2CCCC(O)C2)c2c(n1)[nH]c1ccc(O)cc12` (stereo unspecified), the inhibition result in assay [1], in assay [3] and in assay [4] was “Active” in each case. Besides, in assay [2], the IC50 is < 1000 nM.
